# Laboratory results published in US8691865B2 (AbbVie Inc., priority 2008, dated 2014).
# Where two headings read alike, the source gives them in different places.
# Molecular target: human Cav2.2 (Homo sapiens, UniProt Q00975)
# Experiment: Assessment of calcium channel activity using FLIPR (Ca2+ influx in IMR32 cells)
# Assay type: cell-based
# Summary of the method: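 Human neuroblastoma IMR32 cells were seeded at 1−1.2×10^5 cells/well and cultured 48 h at 37 °C before FLIPR calcium influx measurement. Percent inhibition at each concentration was calculated against the no-inhibitor signal, and IC50 came from sigmoidal dose-response fits.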
# [1] = read-out: IC50 (μM) or percent inhibition (* indicates 3 minute incubation, otherwise 60 minute), IC50, 60 minute pre-incubation with compound, IMR32 cells, 80 mM KCl depolarization
# Chain of human Cav2.2 (Q00975 whole entry): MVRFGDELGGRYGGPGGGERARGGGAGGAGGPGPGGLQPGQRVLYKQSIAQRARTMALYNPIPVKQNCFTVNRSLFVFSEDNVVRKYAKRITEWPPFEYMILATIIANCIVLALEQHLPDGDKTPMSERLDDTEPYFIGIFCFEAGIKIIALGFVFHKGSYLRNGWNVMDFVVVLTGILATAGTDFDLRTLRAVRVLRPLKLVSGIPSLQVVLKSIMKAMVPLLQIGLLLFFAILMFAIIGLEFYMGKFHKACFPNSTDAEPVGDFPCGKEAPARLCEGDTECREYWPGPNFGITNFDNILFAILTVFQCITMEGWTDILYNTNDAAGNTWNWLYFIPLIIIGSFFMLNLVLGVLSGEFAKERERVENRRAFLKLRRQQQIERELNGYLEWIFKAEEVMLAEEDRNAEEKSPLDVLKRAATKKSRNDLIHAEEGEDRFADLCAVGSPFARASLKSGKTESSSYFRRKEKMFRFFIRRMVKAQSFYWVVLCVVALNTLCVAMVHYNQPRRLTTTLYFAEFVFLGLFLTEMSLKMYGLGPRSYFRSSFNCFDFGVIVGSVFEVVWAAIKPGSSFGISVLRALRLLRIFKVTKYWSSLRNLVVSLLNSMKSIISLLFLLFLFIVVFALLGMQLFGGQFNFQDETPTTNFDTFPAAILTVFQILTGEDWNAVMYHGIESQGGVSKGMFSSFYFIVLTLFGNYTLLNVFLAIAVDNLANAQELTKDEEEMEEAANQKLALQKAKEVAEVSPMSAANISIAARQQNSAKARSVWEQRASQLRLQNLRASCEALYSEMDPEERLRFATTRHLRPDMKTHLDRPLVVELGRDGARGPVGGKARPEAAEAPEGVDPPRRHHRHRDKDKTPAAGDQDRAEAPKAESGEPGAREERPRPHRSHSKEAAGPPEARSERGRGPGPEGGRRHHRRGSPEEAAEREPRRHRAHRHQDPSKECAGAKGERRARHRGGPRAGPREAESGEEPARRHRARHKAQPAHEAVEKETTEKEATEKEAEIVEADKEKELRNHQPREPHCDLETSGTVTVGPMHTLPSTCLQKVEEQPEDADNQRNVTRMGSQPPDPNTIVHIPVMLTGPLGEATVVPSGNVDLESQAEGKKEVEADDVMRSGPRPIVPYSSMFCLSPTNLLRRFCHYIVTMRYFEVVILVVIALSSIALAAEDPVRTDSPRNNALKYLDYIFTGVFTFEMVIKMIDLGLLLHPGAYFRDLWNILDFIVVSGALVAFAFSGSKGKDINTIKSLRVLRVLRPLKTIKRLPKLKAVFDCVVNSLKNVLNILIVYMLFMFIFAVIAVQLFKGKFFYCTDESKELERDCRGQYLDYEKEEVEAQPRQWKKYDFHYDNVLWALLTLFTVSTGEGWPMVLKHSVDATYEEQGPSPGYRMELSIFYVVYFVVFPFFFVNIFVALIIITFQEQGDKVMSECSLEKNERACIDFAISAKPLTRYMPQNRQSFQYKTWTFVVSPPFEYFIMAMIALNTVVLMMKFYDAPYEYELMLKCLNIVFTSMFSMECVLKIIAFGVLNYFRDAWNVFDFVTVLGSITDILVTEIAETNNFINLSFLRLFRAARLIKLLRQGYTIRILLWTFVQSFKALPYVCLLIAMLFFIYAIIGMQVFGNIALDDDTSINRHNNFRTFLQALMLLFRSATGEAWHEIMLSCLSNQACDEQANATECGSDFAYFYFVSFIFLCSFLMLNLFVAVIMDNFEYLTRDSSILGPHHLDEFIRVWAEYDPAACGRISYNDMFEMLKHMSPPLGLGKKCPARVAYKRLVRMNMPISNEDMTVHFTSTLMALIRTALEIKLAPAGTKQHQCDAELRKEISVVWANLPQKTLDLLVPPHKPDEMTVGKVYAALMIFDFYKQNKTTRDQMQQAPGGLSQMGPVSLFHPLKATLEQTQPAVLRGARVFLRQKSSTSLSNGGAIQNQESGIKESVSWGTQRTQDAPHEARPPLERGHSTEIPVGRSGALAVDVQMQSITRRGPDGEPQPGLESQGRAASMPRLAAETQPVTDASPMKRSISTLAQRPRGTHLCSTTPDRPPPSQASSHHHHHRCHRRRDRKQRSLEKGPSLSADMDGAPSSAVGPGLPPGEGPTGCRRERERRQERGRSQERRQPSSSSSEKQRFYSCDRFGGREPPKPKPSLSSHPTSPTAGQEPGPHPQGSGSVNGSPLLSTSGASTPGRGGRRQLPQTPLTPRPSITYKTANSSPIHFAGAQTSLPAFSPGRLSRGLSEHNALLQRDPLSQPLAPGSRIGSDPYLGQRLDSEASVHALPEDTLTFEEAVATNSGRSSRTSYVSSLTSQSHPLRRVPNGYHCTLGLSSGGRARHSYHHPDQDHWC
# Chain of human Cav2.2 (P54289 25-956 partner limits assumed): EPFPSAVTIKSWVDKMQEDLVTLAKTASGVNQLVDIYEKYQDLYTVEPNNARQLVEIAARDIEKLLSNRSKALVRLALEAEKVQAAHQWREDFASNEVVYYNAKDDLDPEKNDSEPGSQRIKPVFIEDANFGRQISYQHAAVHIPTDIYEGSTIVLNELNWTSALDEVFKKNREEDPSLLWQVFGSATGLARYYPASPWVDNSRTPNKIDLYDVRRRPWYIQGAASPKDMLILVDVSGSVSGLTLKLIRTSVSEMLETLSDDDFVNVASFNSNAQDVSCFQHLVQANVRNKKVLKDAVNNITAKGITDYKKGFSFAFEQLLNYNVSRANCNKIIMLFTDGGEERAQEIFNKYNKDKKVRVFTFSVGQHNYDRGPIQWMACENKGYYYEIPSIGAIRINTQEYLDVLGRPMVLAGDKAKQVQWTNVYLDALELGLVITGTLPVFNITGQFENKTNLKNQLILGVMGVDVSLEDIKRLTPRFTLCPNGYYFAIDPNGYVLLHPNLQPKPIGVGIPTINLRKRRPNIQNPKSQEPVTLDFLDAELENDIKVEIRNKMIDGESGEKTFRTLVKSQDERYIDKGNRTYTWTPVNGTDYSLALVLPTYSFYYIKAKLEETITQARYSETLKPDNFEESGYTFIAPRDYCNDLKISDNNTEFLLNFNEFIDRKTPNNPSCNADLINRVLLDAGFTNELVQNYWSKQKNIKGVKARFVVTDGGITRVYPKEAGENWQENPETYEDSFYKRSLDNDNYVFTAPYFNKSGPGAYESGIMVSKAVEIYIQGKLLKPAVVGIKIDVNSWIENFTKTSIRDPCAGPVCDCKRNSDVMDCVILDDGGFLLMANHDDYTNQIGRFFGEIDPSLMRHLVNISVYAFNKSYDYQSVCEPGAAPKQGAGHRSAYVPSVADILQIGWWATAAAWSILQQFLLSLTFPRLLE
# Chain of human Cav2.2 (P54289 957-1103 partner limits assumed): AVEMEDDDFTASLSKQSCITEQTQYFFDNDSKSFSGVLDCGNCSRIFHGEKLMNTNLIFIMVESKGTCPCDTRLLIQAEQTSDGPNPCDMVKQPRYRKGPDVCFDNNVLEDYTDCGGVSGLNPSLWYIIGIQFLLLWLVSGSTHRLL
# Chain of human Cav2.2 (P54284 whole entry partner): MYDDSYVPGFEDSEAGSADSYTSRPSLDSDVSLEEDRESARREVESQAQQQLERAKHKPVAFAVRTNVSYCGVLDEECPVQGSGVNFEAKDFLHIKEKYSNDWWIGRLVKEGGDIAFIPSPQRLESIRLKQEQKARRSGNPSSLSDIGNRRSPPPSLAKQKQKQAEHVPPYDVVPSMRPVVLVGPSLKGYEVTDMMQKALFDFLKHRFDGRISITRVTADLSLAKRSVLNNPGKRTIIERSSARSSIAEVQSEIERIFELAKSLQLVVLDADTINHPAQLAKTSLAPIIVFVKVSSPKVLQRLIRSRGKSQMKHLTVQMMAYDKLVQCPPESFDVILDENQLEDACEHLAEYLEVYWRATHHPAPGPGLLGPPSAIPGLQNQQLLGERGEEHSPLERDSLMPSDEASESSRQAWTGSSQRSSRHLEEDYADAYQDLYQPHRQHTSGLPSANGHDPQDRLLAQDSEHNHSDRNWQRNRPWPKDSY
IC50 [1] [µM],IC50 [µM],Structure (SMILES)
1.24,,"O=S(=O)(N[C@H]1CC[C@H]2CN(Cc3cccc(C(F)(F)F)c3)C[C@H]21)c1cccc(C(F)(F)F)c1 [Example 187, 3-(trifluoromethyl)-N-{(3aS,4S,6aR)-2-[3-(trifluoromethyl)benzyl]octahydrocyclopenta[c]pyrrol-4-yl}benzenesulfonamide]"
8.6,,"CN[C@@H](CC(C)C)C(=O)N[C@H]1CC[C@@H]2CN(Cc3cccc(C(F)(F)F)c3)C[C@@H]21 [Example 379, N^2-methyl-N^1-{(3aR,4S,6aS)-2-[3-(trifluoromethyl)benzyl]octahydrocyclopenta[c]pyrrol-4-yl}-L-leucinamide]"
,3.34,"CN[C@@H](CC(C)C)C(=O)N[C@H]1CC[C@@H]2CN(c3ccccc3C)C[C@@H]21 [Example 630, N^2-methyl-N-[(3aR,4S,6aS)-2-(2-methylphenyl)octahydrocyclopenta[c]pyrrol-4-yl]-L-leucinamide]"
10.3,,"CCC[C@H](NC)C(=O)N[C@H]1CC[C@@H]2CN(C(=O)c3cccc(C(F)(F)F)c3)C[C@@H]21 [Example 554, N^2-methyl-N^1-{(3aR,4S,6aS)-2-[3-(trifluoromethyl)benzoyl]octahydrocyclopenta[c]pyrrol-4-yl}-L-norvalinamide]"
,1.03,"FC(F)(F)c1cccc(N2C[C@H]3CC[C@H](NCc4c[nH]c(-c5ccccc5)n4)[C@H]3C2)n1 [Example 688, (3aR,4S,6aS)-N-[(2-phenyl-1H-imidazol-4-yl)methyl]-2-[6-(trifluoromethyl)pyridin-2-yl]octahydrocyclopenta[c]pyrrol-4-amine]"
,1.21,"Fc1ccc(-c2c[nH]c(CN[C@H]3CC[C@@H]4CN(c5cccc(C(F)(F)F)n5)C[C@@H]43)n2)cc1 [Example 744, (3aR,4S,6aS)-N-{[4-(4-fluorophenyl)-1H-imidazol-2-yl]methyl}-2-[6-(trifluoromethyl)pyridin-2-yl]octahydrocyclopenta[c]pyrrol-4-amine]"
,0.92,"CN[C@@H](CC(C)C)C(=O)N[C@H]1CC[C@@H]2CN(c3cccc(C(F)(F)F)c3F)C[C@@H]21 [Example 635, N-{(3aR,4S,6aS)-2-[2-fluoro-3-(trifluoromethyl)phenyl]octahydrocyclopenta[c]pyrrol-4-yl}-N^2-methyl-L-leucinamide]"
,> 30,"CC(C)(C)[C@H](N)C(=O)N[C@@H]1CC[C@H]2CN(Cc3ccccc3)C[C@H]21 [Example 356, N^1-[(3aS,4R,6aR)-2-benzyloctahydrocyclopenta[c]pyrrol-4-yl]-3-methyl-L-valinamide]"
5.67,,"O=C(N[C@@H]1CC[C@H]2CN(Cc3ccc(C(F)(F)F)c(F)c3)C[C@H]21)C(C1CCCCC1)C1CCCCC1 [Example 76, 2,2-dicyclohexyl-N-{(3aS,4R,6aR)-2-[3-fluoro-4-(trifluoromethyl)benzyl]octahydrocyclopenta[c]pyrrol-4-yl}acetamide]"
,1.69,"O=C(N[C@H]1CC[C@@H]2CN(c3cccc(C(F)(F)F)n3)C[C@@H]21)c1ccccc1O [Example 562, 2-hydroxy-N-{(3aR,4S,6aS)-2-[6-(trifluoromethyl)pyridin-2-yl]octahydrocyclopenta[c]pyrrol-4-yl}benzamide]"
3.26,,"CC(C)C(C(=O)N[C@H]1CC[C@@H]2CN(Cc3ccccc3)C[C@@H]21)c1ccccc1 (stereo partly drawn) [Example 35, N-[(3aR,4S,6aS)-2-benzyloctahydrocyclopenta[c]pyrrol-4-yl]-3-methyl-2-phenylbutanamide]"
,2.99,"Cc1oncc1C(=O)N[C@H]1CC[C@@H]2CN(c3cccc(C(F)(F)F)n3)C[C@@H]21 [Example 581, 5-methyl-N-{(3aR,4S,6aS)-2-[6-(trifluoromethyl)pyridin-2-yl]octahydrocyclopenta[c]pyrrol-4-yl}-1,2-oxazole-4-carboxamide]"
3.89,,"CC(C)C[C@H](N)C(=O)N[C@@H]1CC[C@H]2CN(Cc3cccc(C(F)(F)F)c3)C[C@H]21 (relative stereo) [Example 161, N^1-{(3aS*,4R*,6aR*)-2-[3-(trifluoromethyl)benzyl]octahydrocyclopenta[c]pyrrol-4-yl}-L-leucinamide]"
,1,"CC(C)COC(=O)N[C@@H](CC(C)C)C(=O)N[C@@H]1CC[C@H]2CN(Cc3cccc(C(F)(F)F)c3)C[C@H]21 [Example 178, isobutyl (S)-4-methyl-1-oxo-1-((3aS,4R,6aR)-2-(3-(trifluoromethyl)benzyl)octahydrocyclopenta[c]pyrrol-4-ylamino)pentan-2-ylcarbamate]"
2.64,,"CC(C)C[C@H](NC(=O)C(C)(C)C)C(=O)N[C@@H]1CC[C@H]2CN(Cc3cccc(C(F)(F)F)c3)C[C@H]21 [Example 177, N^2-(2,2-dimethylpropanoyl)-N^1-{(3aS,4R,6aR)-2-[3-(trifluoromethyl)benzyl]octahydrocyclopenta[c]pyrrol-4-yl}-L-leucinamide]"
11.3,,"CCC[C@H](NC)C(=O)N[C@H]1CC[C@@H]2CN(S(=O)(=O)c3ccc(OC)cc3)C[C@@H]21 [Example 537, N^1-{(3aR,4S,6aS)-2-[(4-methoxyphenyl)sulfonyl]octahydrocyclopenta[c]pyrrol-4-yl}-N^2-methyl-L-norvalinamide]"

IC50 [1] [µM],IC50 [µM],Structure (SMILES)
,1.14,"O=C(N[C@@H]1CC[C@H]2CN(Cc3cccc(C(F)(F)F)c3)C[C@H]21)C(c1ccccc1)c1ccccc1 (relative stereo) [Example 145, 2,2-diphenyl-N-{(3aS*,4R*,6aR*)-2-[3-(trifluoromethyl)benzyl]octahydrocyclopenta[c]pyrrol-4-yl}acetamide]"
,0.7,"CCC[C@H](NCC(C)(C)C)C(=O)N[C@H]1CC[C@@H]2CN(S(=O)(=O)c3ccc(C(F)(F)F)cc3)C[C@@H]21 [Example 257, N^2-neopentyl-N^1-((3aR,4S,6aS)-2-{[4-(trifluoromethyl)phenyl]sulfonyl}octahydrocyclopenta[c]pyrrol-4-yl)-L-norvalinamide]"
,7.77,"CN[C@@H](CC(C)C)C(=O)N[C@H]1CC[C@@H]2CN(c3ccc(Cl)cc3)C[C@@H]21 [Example 639, N-[(3aR,4S,6aS)-2-(4-chlorophenyl)octahydrocyclopenta[c]pyrrol-4-yl]-N^2-methyl-L-leucinamide]"
,0.34,"O=C(N[C@H]1CC[C@@H]2CN(c3cccc(C(F)(F)F)n3)C[C@@H]21)c1cccc(F)c1 [Example 564, 3-fluoro-N-{(3aR,4S,6aS)-2-[6-(trifluoromethyl)pyridin-2-yl]octahydrocyclopenta[c]pyrrol-4-yl}benzamide]"
,8.15,"Fc1ccc2[nH]c(CN[C@H]3CC[C@@H]4CN(c5ccc(OC(F)(F)F)cc5)C[C@@H]43)cc2c1 [Example 716, (3aR,4S,6aS)-N-[(5-fluoro-1H-indol-2-yl)methyl]-2-[4-(trifluoromethoxy)phenyl]octahydrocyclopenta[c]pyrrol-4-amine]"
,0.61,"Fc1ccc2nc(CN[C@H]3CC[C@@H]4CN(c5cccc(C(F)(F)F)n5)C[C@@H]43)[nH]c2c1 [Example 691, (3aR,4S,6aS)-N-[(6-fluoro-1H-benzimidazol-2-yl)methyl]-2-[6-(trifluoromethyl)pyridin-2-yl]octahydrocyclopenta[c]pyrrol-4-amine]"
,> 30,"O=C(N[C@@H]1CC[C@H]2CN(Cc3ccccc3)C[C@H]21)[C@@H]1CCCCN1 [Example 350, (2S)-N-[(3aS,4R,6aR)-2-benzyloctahydrocyclopenta[c]pyrrol-4-yl]piperidine-2-carboxamide]"
,1.52,"O=C(N[C@H]1CC[C@@H]2CN(c3ccc(F)cc3C(F)(F)F)C[C@@H]21)[C@@H]1C[C@@H](F)CN1 [Example 698, (4R)-4-fluoro-N-{(3aR,4S,6aS)-2-[4-fluoro-2-(trifluoromethyl)phenyl]octahydrocyclopenta[c]pyrrol-4-yl}-L-prolinamide]"
,0.95,"CC(C)(C)C[C@H](N)C(=O)N[C@H]1CC[C@@H]2CN(S(=O)(=O)c3cccc(C(F)(F)F)c3)C[C@@H]21 [Example 392, 4-methyl-N^1-((3aR,4S,6aS)-2-{[3-(trifluoromethyl)phenyl]sulfonyl}octahydrocyclopenta[c]pyrrol-4-yl)-L-leucinamide]"
,6.85,"O=C(N[C@H]1CC[C@@H]2CN(c3ccccc3Cl)C[C@@H]21)[C@@H]1C[C@@H](F)CN1 [Example 659, (4R)-N-[(3aR,4S,6aS)-2-(2-chlorophenyl)octahydrocyclopenta[c]pyrrol-4-yl]-4-fluoro-L-prolinamide]"
1.64,,"CN[C@@H](CC(C)C)C(=O)N[C@H]1CC[C@H]2CN(Cc3cccc(C(F)(F)F)c3)C[C@H]21 [Example 164, N^2-methyl-N^1-{(3aS,4S,6aR)-2-[3-(trifluoromethyl)benzyl]octahydrocyclopenta[c]pyrrol-4-yl}-L-leucinamide]"
,0.36,"CC(C)C(C(=O)N[C@H]1CC[C@H]2CN(Cc3cccc(C(F)(F)F)c3)C[C@H]21)c1ccccc1 (relative stereo) [Example 122, 3-methyl-2-phenyl-N-{(3aS*,4S*,6aR*)-2-[3-(trifluoromethyl)benzyl]octahydrocyclopenta[c]pyrrol-4-yl}butanamide]"
3.51,,"CC(C)C[C@H](N)C(=O)N[C@H]1CC[C@H]2CN(Cc3cccc(C(F)(F)F)c3)C[C@H]21 (stereo in doubt) [Example 158, N^1-{(3aS*,4S*,6aR*)-2-[3-(trifluoromethyl)benzyl]octahydrocyclopenta[c]pyrrol-4-yl}-L-leucinamide]"
,4.67,"O=C(N[C@H]1CC[C@H]2CN(Cc3ccccc3)C[C@H]21)C(C1CCCCC1)C1CCCCC1 (relative stereo) [Example 11, N-[(3aS*,4S*,6aR*)-2-benzyloctahydrocyclopenta[c]pyrrol-4-yl]-2,2-dicyclohexylacetamide]"
,20.5,"O=C(N[C@H]1CC[C@@H]2CN(c3cc(C(F)(F)F)ccn3)C[C@@H]21)[C@@H]1C[C@@H](F)CN1 [Example 637, (4R)-4-fluoro-N-{(3aR,4S,6aS)-2-[4-(trifluoromethyl)pyridin-2-yl]octahydrocyclopenta[c]pyrrol-4-yl}-L-prolinamide]"
